This is an account of results in ChEMBL document CHEMBL1127975, “Balanced angiotensin II receptor antagonists. II.1,2 4-aminomethyl- and acylaminomethylimidazoles” (Bioorg Med Chem Lett, 1994).

In assay [1] the target is T1, Type-1 angiotensin II receptor (Homo sapiens, UniProt P30556).
T1 sequence (P30556 whole entry): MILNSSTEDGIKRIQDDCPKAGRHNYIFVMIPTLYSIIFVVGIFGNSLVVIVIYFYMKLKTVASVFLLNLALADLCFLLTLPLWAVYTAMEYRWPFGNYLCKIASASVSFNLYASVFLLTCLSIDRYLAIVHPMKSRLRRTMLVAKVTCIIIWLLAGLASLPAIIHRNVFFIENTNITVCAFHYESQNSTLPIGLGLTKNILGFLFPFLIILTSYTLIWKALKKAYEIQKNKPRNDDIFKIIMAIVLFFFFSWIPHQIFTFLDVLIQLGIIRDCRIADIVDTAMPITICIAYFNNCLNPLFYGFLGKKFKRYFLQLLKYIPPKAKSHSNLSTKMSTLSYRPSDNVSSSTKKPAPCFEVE
Description: In vitro binding affinity of compound against Angiotensin II receptor, type 1.

The target of assay [2] is T2, Type-2 angiotensin II receptor (Homo sapiens, UniProt P50052).
T2 sequence (P50052 whole entry): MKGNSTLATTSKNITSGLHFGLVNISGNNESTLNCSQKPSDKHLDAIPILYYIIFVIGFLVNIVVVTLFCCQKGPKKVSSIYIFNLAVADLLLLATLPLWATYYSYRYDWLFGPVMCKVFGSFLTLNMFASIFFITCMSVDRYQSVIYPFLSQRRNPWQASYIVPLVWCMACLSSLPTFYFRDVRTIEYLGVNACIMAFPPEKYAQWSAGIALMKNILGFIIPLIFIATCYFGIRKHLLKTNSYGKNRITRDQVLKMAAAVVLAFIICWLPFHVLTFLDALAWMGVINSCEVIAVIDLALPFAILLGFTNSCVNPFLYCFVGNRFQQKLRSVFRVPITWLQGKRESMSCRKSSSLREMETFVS
Description: In vitro binding affinity of compound against angiotensin II AT-2 receptor.

Assay [3] relates to Rattus norvegicus. Description: Compound was tested for its antihypertensive activity after intravenous administration to renal hypertensive rats. Format: functional.
For assay [4], the system named is Rattus norvegicus. The experiment in a line: Compound was tested for its antihypertensive activity after oral administration to renal hypertensive rats. It is filed as functional.

Some results are limits rather than exact numbers.

With `CCCc1nc(CN(Cc2ccccc2)C(=O)OCC(C)C)c(C(=O)O)n1Cc1ccc(-c2ccccc2-c2nn[nH]n2)cc1`, the IC50 was 20 nM in assay [1] and 800 nM in assay [2].
For `CCCc1nc(CNC(=O)C(c2ccccc2)c2ccccc2)c(C(=O)O)n1Cc1ccc(-c2ccccc2-c2nn[nH]n2)cc1`, the half-inhibitory concentration (IC50) is 10 nM in assay [1] and 600 nM in assay [2].
Consider `CCCc1nc(CN2CCN(c3ccccn3)CC2)c(C(=O)O)n1Cc1ccc(-c2ccccc2-c2nn[nH]n2)cc1F`, for which the half-maximal inhibitory concentration (IC50) in assay [1] is 0.9 nM; in assay [2], 200 nM.
`CCCc1nc(C(=O)N2CCN(c3ccccn3)CC2)c(C(=O)O)n1Cc1ccc(-c2ccccc2-c2nnn[nH]2)cc1`: the IC50 in assay [1] amounted to 2 nM; in assay [2], 700 nM. For the same compound, the results for the ED30 in the assay on Rattus norvegicus [3] and in the assay on Rattus norvegicus [4] were 0.018 mg/kg and about 3 mg/kg, respectively.
With `CCCCN(Cc1ccccc1)Cc1nc(CCC)n(Cc2ccc(-c3ccccc3-c3nnn[nH]3)cc2)c1C(=O)O`, the values for the IC50 in assay [1] and in assay [2] were 3 nM and 90 nM, respectively. Besides, the ED30 in the assay with Rattus norvegicus [3] is 0.04 mg/kg; in the assay with Rattus norvegicus [4], 3 mg/kg.
On to `CCCCN(Cc1nc(CCC)n(Cc2ccc(-c3ccccc3S(=O)(=O)NC(=O)CCC)cc2)c1C(=O)O)C(=O)CCC`, for which the 50% inhibitory concentration (IC50) in assay [1] came to 2 nM; in assay [2], 90 nM. The values for the ED30 in the assay on Rattus norvegicus [3] and with Rattus norvegicus [4] were 0.18 mg/kg and 1.65 mg/kg, respectively.
As for `CCCc1nc(CN2CCN(c3ccc(F)cc3)CC2)c(C(=O)O)n1Cc1ccc(-c2ccccc2-c2nn[nH]n2)cc1`, the IC50 was 3 nM in assay [1] and 80 nM in assay [2].
Take `CCCc1nc(CN2CCN(c3ccccc3Cl)CC2)c(C(=O)O)n1Cc1ccc(-c2ccccc2-c2nnn[nH]2)cc1`: the IC50 amounted to 2 nM in assay [1] and 600 nM in assay [2].
On to `CCCc1nc(CN(Cc2ccccc2)C(=O)OC(C)(C)C)c(C(=O)O)n1Cc1ccc(-c2ccccc2-c2nn[nH]n2)cc1`, for which the figures for the IC50 in assay [1] and in assay [2] were 9 nM and 1000 nM, respectively.
For `CCCc1nc(CN2CCN(c3ccccc3OC)CC2)c(C(=O)O)n1Cc1ccc(-c2ccccc2-c2nnn[nH]2)cc1`, the IC50 in assay [1] is 2 nM; in assay [2] it was 3000 nM.
Turning to `CCCCCC(=O)NS(=O)(=O)c1ccccc1-c1ccc(Cn2c(CCC)nc(CN3CCN(c4ccccn4)CC3)c2C(=O)O)cc1`, the IC50 in assay [1] is 6 nM; in assay [2], 20 nM. Also, the ED30 with Rattus norvegicus [3] was 0.13 mg/kg; in the assay on Rattus norvegicus [4] it was over 10 mg/kg.
Turning to `CCCc1nc(CN2CCN(c3ccccc3)CC2)c(C(=O)O)n1Cc1ccc(-c2ccccc2-c2nnn[nH]2)cc1`, the IC50 stood at 5 nM in assay [1] and 50 nM in assay [2]. Moreover, the ED30 with Rattus norvegicus [3] was 0.004 mg/kg; with Rattus norvegicus [4], over 3 mg/kg.
`CCCCOC(=O)NS(=O)(=O)c1ccccc1-c1ccc(Cn2c(CCC)nc(CN3CCN(c4ccccn4)CC3)c2C(=O)O)cc1`: the IC50 in assay [1] came to 6 nM; in assay [2], 90 nM.
On to `CCCc1nc(CN2CCN(c3ccccn3)CC2)c(C(=O)O)n1Cc1ccc(-c2ccccc2-c2nn[nH]n2)cc1`, for which the IC50 amounted to 4.2 nM in assay [1] and 60 nM in assay [2]. Besides, the ED30 in the assay with Rattus norvegicus [3] was 0.003 mg/kg; in the assay on Rattus norvegicus [4], over 3 mg/kg.
On to `CCCc1nc(CN(CC(=O)O)C(=O)C(c2ccccc2)c2ccccc2)c(C(=O)O)n1Cc1ccc(-c2ccccc2-c2nn[nH]n2)cc1`, for which the IC50 in assay [1] came out at 100 nM; in assay [2], 7000 nM.
Consider `CCCc1nc(CN2CCN(c3ncccn3)CC2)c(C(=O)O)n1Cc1ccc(-c2ccccc2-c2nn[nH]n2)cc1`, for which the half-maximal inhibitory concentration (IC50) was found to be 2 nM in assay [1] and 80 nM in assay [2].
For the compound `CCCc1nc(CN2CCN(c3ccccc3)C[C@H]2Cc2ccccc2)c(C(=O)O)n1Cc1ccc(-c2ccccc2-c2nn[nH]n2)cc1`, the IC50 in assay [1] was determined as 10 nM; in assay [2], 1000 nM.
As to `CCCc1nc(CN2CCN(c3ccccc3)C[C@H]2C)c(C(=O)O)n1Cc1ccc(-c2ccccc2-c2nnn[nH]2)cc1`, the IC50 was 2 nM in assay [1] and 70 nM in assay [2].
Turning to `CCCc1nc(CN2CCN(C(=O)C3CC3)CC2)c(C(=O)O)n1Cc1ccc(-c2ccccc2-c2nnn[nH]2)cc1`, the figures for the IC50 in assay [1] and in assay [2] were 10 nM and 6000 nM, respectively.
For `CCCc1nc(CN2CCN(c3ccccn3)CC2)c(C(=O)O)n1Cc1ccc(-c2ccccc2S(=O)(=O)NC(=O)C2CC2)cc1`, in that order: 10 nM and 600 nM.
For `CCCc1nc(CN2CCN(c3ccccn3)CC2)c(C=O)n1Cc1ccc(-c2ccccc2-c2nn[nH]n2)cc1`, in that order: 2 nM and 1000 nM.
With `CCc1nc(CN2CCN(c3ccccn3)CC2)c(C(=O)O)n1Cc1ccc(-c2ccccc2-c2nnn[nH]2)cc1`, the IC50 in assay [1] was 20 nM; in assay [2], 500 nM.
Turning to `CCCc1nc(CN2CCN(C(=O)C(c3ccccc3)c3ccccc3)CC2)c(C(=O)O)n1Cc1ccc(-c2ccccc2-c2nn[nH]n2)cc1`, the IC50 was found to be 10 nM in assay [1] and 1000 nM in assay [2].
Turning to `CCCc1nc(CNC(=O)OC(C)(C)C)c(C(=O)O)n1Cc1ccc(-c2ccccc2-c2nn[nH]n2)cc1`, the IC50 in assay [1] came out at 6 nM; in assay [2] it was 4000 nM.
With `CCCc1nc(CN2CCC(c3ccccc3)CC2)c(C(=O)O)n1Cc1ccc(-c2ccccc2-c2nn[nH]n2)cc1`, the concentration for half-maximal inhibition (IC50) in assay [1] is 2 nM; in assay [2], 400 nM.
For `CCCc1nc(CN2CCN(C(=O)c3ccccc3)CC2)c(C(=O)O)n1Cc1ccc(-c2ccccc2-c2nnn[nH]2)cc1`, the IC50 in assay [1] was 5 nM; in assay [2] it was over 10000 nM.
Regarding `CCCc1nc(CN(Cc2ccccc2)C(=O)c2ccccc2)c(C(=O)O)n1Cc1ccc(-c2ccccc2S(=O)(=O)NC(=O)OCC(C)C)cc1`, the results for the half-inhibitory concentration (IC50) in assay [1] and in assay [2] were 8 nM and 100 nM, respectively.
Regarding `CCCCCN(CCCCC)Cc1nc(CCC)n(Cc2ccc(-c3ccccc3-c3nnn[nH]3)cc2)c1C(=O)O`, the IC50 in assay [1] came to 2 nM; in assay [2], 200 nM.
On to `CCCc1nc(CN2CCN(c3ccccn3)CC2)c(CO)n1Cc1ccc(-c2ccccc2-c2nn[nH]n2)cc1`, for which the half-inhibitory concentration (IC50) is 10 nM in assay [1] and over 10000 nM in assay [2].
For `CCCCc1nc(CN2CCN(c3ccccn3)CC2)c(C(=O)O)n1Cc1ccc(-c2ccccc2-c2nn[nH]n2)cc1`, in that order: 2 nM and 700 nM.
For the compound `CCCc1nc(CN2CCN(c3ccccn3)CC2)c(C(=O)O)n1Cc1ccc(-c2ccccc2S(=O)(=O)NC(=O)c2ccccc2)cc1`, the concentration for half-maximal inhibition (IC50) in assay [1] came out at 6 nM; in assay [2], 500 nM.
With `CCCc1nc(CN(Cc2ccccc2)C(=O)Nc2ccccc2)c(C(=O)O)n1Cc1ccc(-c2ccccc2-c2nnn[nH]2)cc1`, the 50% inhibitory concentration (IC50) worked out at 2 nM in assay [1] and 300 nM in assay [2].
For `CCCc1nc(CN(Cc2ccccc2)C(=O)Cc2ccccc2)c(C(=O)O)n1Cc1ccc(-c2ccccc2-c2nn[nH]n2)cc1`, in that order: 20 nM and 400 nM.
For `CCCCc1nc(Cl)c(CO)n1Cc1ccc(-c2ccccc2-c2nnn[n-]2)cc1.[K+]` [LOSARTAN POTASSIUM], the ED30 in the assay with Rattus norvegicus [3] was determined as 0.78 mg/kg; in the assay with Rattus norvegicus [4], 0.59 mg/kg.

As a reminder, the IC50 is the point on the concentration scale where inhibition reaches its midpoint. Lower therefore signals greater potency.
